Tests used:
[1] = Intrinsic dissolution in 0.5% Tween 80; type: physicochemical; conditions: 0.5% Tween 80, 100 rpm, 37° C.
Description: Milled and as-received API samples were weighed and compressed into a compact using a hydraulic press at 3,000 psi for 60 seconds. Compacts were mounted on intrinsic dissolution apparatus and dissolution study was conducted using USP dissolution apparatus in 250 mL of 0.5% Tween 80 solution at 100 rpm at 37° C. in duplicate. Aliquots (1.0 mL) of dissolution media are taken at selected time-points from each dissolution vessel at 5 minute intervals from 5 to 40 minutes. Each sample was centrifuged at 14,000 rpm for 3 minutes and the supernatant was samples and diluted with diluent for HPLC analysis (Table 7). The retention time of Compound A is about 1.5 minutes.
The Intrinsic dissolution performance of the jet-milled API vs. as received API was conducted to observe any increase in dissolution by particle size reduction. FIG. 8 and Table 15 below show the intrinsic dissolution results.

[2] = Glass transition temperature (Tg) by MDSC; type: physicochemical; conditions: for Tg: bulk API, melt-quench amorphous, MDSC
Description: DSC was performed using a TA Instruments Discovery DSC2500 differential scanning calorimeter equipped with a TA instruments Refrigerated Cooling System 90 operating in either modulated or ramp mode. DSC was used to measure thermodynamic events and characteristics of Compound A free base and hemi-maleate salt, and subsequent SDIs. Events observed include the glass transition temperature (Tg), cold crystallization (Tc), defined as a crystallization event at a temperature lower than the melt temperature, and melting temperature (Tm). SDI samples were placed in non-hermetic aluminum pans and heated at a constant rate of 2.0° C./min over a 5-200° C. temperature range. The system was purged by nitrogen flow at 50 mL/min to ensure inert atmosphere through the course of measurement. […] Amorphous API was successfully created by rapidly quenching liquefied Compound A using Refrigerated Cooling System 90. The resulting amorphous API was analyzed by modulated DSC. A summary of DSC analysis parameters can be found in Tables 2 and 3.
Thermal properties of both Compound A forms were measured by both DSC and MDSC. […] The Tg of each was measured via a melt-quench technique, heating past its melting temperature and rapidly cooling to trap the molten material in an amorphous state. […] (FIG. 2/Table 11).
Samples were stored at the elevated humidity conditions for 18 hours at ambient temperature before sealing in hermetic pans and analysis by MDSC. Results are reported as a function of relative humidity (RH) in FIG. 13 and Table 20. All lead SDI formulations (HPMCAS-H and PVP VA64 dispersions) have a Tg that is low at elevated humidity conditions and is predicted to require conservative packaging (i.e., desiccant, foil-foil seal, or etc.) to obtain sufficient long-term physical stability of the SDI. To ensure long-term physical stability in open packaging at all ICH conditions, it is desirable that the SDI have a Tg higher than 50° C. at 75% RH, and ideally higher than 60° C. at 75% RH.

AHR [3] = biological target: T1, AHR (Homo sapiens, UniProt P35869); assay: CYP1B1 gene expression in human whole blood ex vivo, basal and L-kynurenine-induced; type: cell-based; design: endogenous in cells; conditions: Compound A concentrations >0.5 μM, basal and 20 μM L-kynurenine activated, 24 hours, 2 donors
T1 sequence (P35869 11-848): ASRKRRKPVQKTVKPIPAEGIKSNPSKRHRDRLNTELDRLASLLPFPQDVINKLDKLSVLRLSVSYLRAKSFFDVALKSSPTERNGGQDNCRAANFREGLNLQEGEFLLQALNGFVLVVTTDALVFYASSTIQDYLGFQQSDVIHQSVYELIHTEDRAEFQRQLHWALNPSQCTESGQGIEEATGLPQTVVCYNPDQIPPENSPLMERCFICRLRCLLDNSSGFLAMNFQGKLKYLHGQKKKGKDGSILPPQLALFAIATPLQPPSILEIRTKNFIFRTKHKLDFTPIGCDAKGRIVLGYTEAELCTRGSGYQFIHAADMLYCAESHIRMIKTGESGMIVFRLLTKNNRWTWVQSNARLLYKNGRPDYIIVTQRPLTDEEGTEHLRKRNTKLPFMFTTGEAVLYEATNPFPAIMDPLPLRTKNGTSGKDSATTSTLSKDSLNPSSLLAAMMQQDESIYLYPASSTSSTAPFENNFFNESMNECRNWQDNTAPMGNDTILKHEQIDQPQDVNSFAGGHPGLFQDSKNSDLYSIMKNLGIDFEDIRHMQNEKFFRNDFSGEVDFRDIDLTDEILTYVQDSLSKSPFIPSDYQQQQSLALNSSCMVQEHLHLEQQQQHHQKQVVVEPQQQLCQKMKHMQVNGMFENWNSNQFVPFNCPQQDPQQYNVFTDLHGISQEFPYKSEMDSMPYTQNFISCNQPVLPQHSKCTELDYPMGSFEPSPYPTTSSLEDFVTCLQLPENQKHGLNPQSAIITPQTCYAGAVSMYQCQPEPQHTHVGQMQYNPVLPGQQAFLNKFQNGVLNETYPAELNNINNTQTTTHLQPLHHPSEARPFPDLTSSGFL
Description: To further examine the effects of Compound A on basal and ligand-activated AHR-dependent gene expression in human immune cells, blood samples from 2 healthy human donors were exposed ex vivo to Compound A in the presence or absence of 20 μM L-kynurenine to activate AHR. After 24 hours, cells were evaluated for CYP1B1 gene expression. In whole blood samples without AHR activation, basal levels of CYP1B1 expression were inhibited by Compound A treatment in both donors (FIG. 30A). […] In both donors, Compound A concentrations >0.5 μM inhibited CYP1B1 gene expression by greater than 50% under basal and ligand activated conditions.

AHR [4] = biological target: T1, AHR; assay: HepG2 DRE-Luc reporter assay, VAF347-stimulated luciferase expression; type: cell-based; design: endogenous in cells; host or cells: HepG2 DRE-Luc reporter cell line; conditions: 80 nM VAF347, n=2
Description: In vitro experiments were conducted to examine the inhibitory activity of Compound A for AHR-mediated transcriptional activation in the HepG2 DRE-Luc reporter cell line. This human hepatoma cell line stably expresses a luciferase reporter gene under control of AHR-responsive DRE enhancer elements (Han, 2004). HepG2 DRE-Luc reporter cells were treated with 80 nM VAF347 to activate AHR.
The inhibitory activity of the human Compound A metabolites, Compound B and Compound C was also determined in the HepG2 DRE-Luc cell line. Reporter cells were stimulated with 80 nM VAF347 and each metabolite at multiple concentrations.

## CC(C)c1cnn2c(N[C@@H]3CCc4[nH]c5ccccc5c4C3)nc(-c3cncc(F)c3)nc12 [Compound A, (R)—N-(2-(5-fluoropyridin-3-yl)-8-isopropylpyrazolo[1,5-a][1,3,5]triazin-4-yl)-2,3,4,9-tetrahydro-1H-carbazol-3-amine]
[1]
  IDR (intrinsic dissolution rate): 0.85 ug/min*cm^2
[2]; K/K, indicator of physical stability
  Tm/Tg ratio: 1.30
[2]; listed as Compound A Free Base
  Tg: 95 °C
[2]; listed as free base
  Tg: 95 °C
AHR [3]
  inhibition of CYP1B1 gene expression: greater than 50%
AHR [4]
  IC50: 91 nM

Source: US20230026232A1, “AHR INHIBITORS AND USES THEREOF” (Ikena Oncology, Inc., priority 2019, published 2023)
